In patent US4616015A, “Triazine derivatives, and pharmaceutical compositions comprising the same” (Fujisawa Pharmaceutical Co., Ltd., priority 1983, dated 1986):
Structures can show the parent of a compound that is named as a salt.

Columns and labels:
blood pressure = experiment: Antihypertensive activity (test A): maximum decrease of blood pressure in uninephrectomized DOCA/saline hypertensive rats, oral; assay type: in vivo, male Wister rats
Description: Five-week old male Wister rats were uninephrectomized under anesthesia. Deoxycorticosterone acetate (DOCA) (30 mg/kg), suspended in peanut oil, was injected subcutaneously twice a week and 1% saline was substituted for the drinking water. Animals with mean blood pressure 150-200 mmHg were used for experiment between 5 and 7 weeks after surgery.
The test compounds were administered orally. Blood pressure was measured at the femoral artery by means of a pressure transducer and recorded as electrically integrated values of mean arterial pressure.

platelet aggregation [1] = experiment: Inhibition of platelet aggregation induced by collagen, platelet rich plasma (test B); assay type: cell-based; conditions: Oryctolagus cuniculus, inducer collagen (2.5 μg/ml), rabbit PRP, 37° C., read-out: ID50, platelet aggregation, collagen
Description: (§1) Platelet rich plasma (PRP) which contains 6.5-7.5×10^8 platelet/ml was prepared from rabbit blood. To the 200 μl of PRP, 5 μl of calcium chloride (1 mM) and 50 μl of pH 7.4 Tris-acetate solution (5 mM) containing 120 mM NaCl and test compound were added successively, and then stirred for 2 min. at 37° C. To the solution, 5 μl of adenosine diphosphate (ADP) (2.5 μM) or collagen (2.5 μg/ml) was added as an aggregation inducer. Aggregation was measured by using an aggregometer (NKK HEMA TRACER 1).

platelet aggregation [2] = experiment: Inhibition of platelet aggregation induced by ADP, platelet rich plasma (test B); assay type: cell-based; conditions: Oryctolagus cuniculus, inducer ADP (2.5 μM), rabbit PRP, 37° C., read-out: ID50, platelet aggregation, ADP
Description: as §1

ethanol ulcer = experiment: Ethanol ulcer, area of ulcers (test C); assay type: in vivo, male Sprague-Dowley rats; conditions: dose c: 32 mg/kg, oral, 30 minutes before ethanol
Description: Five male Sprague-Dowley rats, aged 7 weeks and weighing about 200 g, were used per group for the study on ethanol ulcer after the fast for 24 hours.
Test compound was suspended in 0.1% methylcellulose aqueous solution, and the suspension (5 ml/kg) was orally given to each rat.
The control group was given a vehicle, i.e. 0.1% methylcellulose aqueous solution (5 ml/kg), alone in the same way.
Absolute ethanol (5 ml/kg) was orally administered 30 minutes after dosing with test compound, and one hour later, the rats were sacrificed and their stomachs were removed. The area of ulcers of each rat was measured. The mean area (mm^2) in the medicated group was compared with that in the control group.

| SMILES | IC50 (platelet aggregation [1]) [nM] | IC50 (platelet aggregation [2]) [nM] | Effect Max (mean ratio of maximum decrease of blood pressure) (blood pressure; dose a: 0.1 mg/kg) [%] | Effect Max (mean ratio of maximum decrease of blood pressure) (blood pressure; dose b: 1 mg/kg) [%] | Effect Max (ulcer area vs control) (ethanol ulcer) [%] |
| --- | --- | --- | --- | --- | --- |
| CC(Cl)C(=O)Nc1ccc(C2=NNC(=O)NC2C)cc1 (stereo not drawn) [5-(7), 6-[4-(2-Chloropropionylamino)phenyl]-5-methyl-4,5-dihydro-1,2,4-triazin-3(2H)-one] |  |  | 18.7 | 51.8 |  |
| CC1NC(=O)NN=C1c1ccc(NC(=O)CCC(=O)O)cc1 (stereo not drawn) [13-(4), Sodium 3-[4-(3-methyl-4,5-dihydro-3(2H)-oxo-1,2,4-triazin-6-yl)phenylcarbamoyl]propionate] |  |  |  |  | 67.0 |
| C=CC(=O)Nc1ccc(C2=NNC(=O)NC2C)cc1 (stereo not drawn) [22-(1), 6-(4-Acryloylaminophenyl)-5-methyl-4,5-dihydro-1,2,4-triazin-3(2H)-one] | 16 | 68 |  |  |  |
| CC1NC(=O)NN=C1c1ccc(NC(=O)CN)cc1 (stereo not drawn) [Example 29, 6-(4-glycyclaminophenyl)-5-methyl-4,5-dihydro-1,2,4-triazin-3(2H)-one hydrochloride] |  |  | 11.1 | 47.5 |  |

The next lines start with results.

| IC50 (platelet aggregation [1]) [nM] | IC50 (platelet aggregation [2]) [nM] | SMILES | Effect Max (mean ratio of maximum decrease of blood pressure) (blood pressure; dose a: 0.1 mg/kg) [%] | Effect Max (mean ratio of maximum decrease of blood pressure) (blood pressure; dose b: 1 mg/kg) [%] | Effect Max (ulcer area vs control) (ethanol ulcer) [%] |
| --- | --- | --- | --- | --- | --- |
| 5.3 | 110 | CC(=O)C(=O)Nc1ccc(C2=NNC(=O)NC2C)cc1 (stereo not drawn) [5-(19), 6-(4-Pyruvoylaminophenyl)-5-methyl-4,5-dihydro-1,2,4-triazin-3(2H)-one] |  |  |  |
| 150 | 320 | CC1NC(=O)NN=C1c1ccc(NC(=O)[C@@H](C)O)cc1 (stereo partly drawn) [13-(3), 6-(4-D-Lactoylaminophenyl)-5-methyl-4,5-dihydro-1,2,4-triazin-3(2H)-one] | 22 | 50 |  |
| 47 | 190 | CC1NC(=O)NN=C1c1ccc(NCCCN)cc1 (stereo not drawn) [21-(1), 6-[4-(3-aminopropylamino)phenyl]-5-methyl-4,5-dihyro-1,2,4-triazin-3(2H)-one] |  |  |  |
